B1: BDNF: polypeptide growth factor, administered conjointly with bone marrow cells in a cited study (Chen et al. 2000) (protein, UniProt P23560 19-247, looked up)
Neurotrophic factor BDNF …: APMKEANIRGQGGLAYPGVRTHGTLESVNGPKAGSRGLTSLADTFEHVIEELLDEDQKVRPNEENNKDADLYTSRVMLSSQVPLEPPLLFLLEEYKNYLDAANMSMRVRRHSDPARRGELSVCDSISEWVTAADKKTAVDMSGGTVTVLEKVPVSKGQLKQYFYETKCNPMGYTKEGCRGIDKRHWNSQCRTTQSYVRALTMDSKKRIGWRFIRIDTSCVCTLTIKRGR

How the values were obtained:
[1] = test system: rat stroke model (focal cerebral infarction, middle cerebral artery electrocoagulation); experiment: Example 1: sensorimotor behavioural tests after intracisternal treatment in rat stroke model; assay type: in vivo
Experimental: In this example, fetal mouse neural stem cells (NSC) with or without basic fibroblast growth factor (bFGF) were administered intracisternally in a model of stroke recovery in rats. Male Sprague-Dawley rats, 300-350 grams, were handled for one week before surgery. They received an antibiotic, cefazolin sodium (40 mg/kg, i.p.), one day before stroke surgery. On the day of stroke surgery, animals were anesthetized by 2% halothane in a […]/oxygen mixture (2:1). Focal cerebral infarction, (stroke) was performed by proximal electrocoagulation of the middle cerebral artery, as described previously (Kawamata et al. (1999) Exp. Neurol. 158, 89-96; Tamura et al. (1981) J. Cereb. Blood Flow Metab. 1, 53-60). […] This technique produces a robust and reproducible infarct, or region of cell death, in the dorsolateral cerebral cortex and underlying striatum. Animals received another injection of cefazolin sodium (40 mg/kg, i.p.) immediately after surgery. They were then allowed to awaken from anesthesia.
Twenty-four hours after stroke surgery, animals received an intracisternal injection of either: (1) vehicle, (2) NSC (10^6 cells), (3) bFGF (0.5 μg), or (4) NSC+bFGF. Intracisternal injection in 50 μl total volume was done through percutaneous injection into the cisterna magna under halothane anesthesia. This same procedure was repeated two days later so that animals received treatment on days 1 and 3 following stroke. Cyclosporin, an immunosuppressant, was administered at 10 mg/kg, i.p. for the duration of the experiment.
The cerebral infarcts produced by the procedure cause sensorimotor dysfunction of the contralateral hindlimb and forelimb. For the next month following stroke, a number of neurological tests were done to assess sensorimotor function of the contralateral limbs. These tests include both the forelimb and hindlimb placing tests which test the animal's ability to place the limb on a tabletop in response to visual, tactile, proprioceptive, and whisker stimulation. […]

animal models of stroke = conditions: administered starting a day or more after stroke; cited from earlier work
[2] = test system: rat stroke model (focal cerebral infarction, middle cerebral artery electrocoagulation); experiment: Example 2: behavioural tests after intracerebral NSC and intracisternal bFGF in rat stroke model; assay type: in vivo; conditions: single administration one day after stroke
Experimental: In a second experiment, NSC were injected directly into the brain into tissue surrounding focal strokes. bFGF was injected intracisternally, as before. In this experiment only one administration of NSC or bFGF was performed at one day after stroke.
In this experiment, animals were handled for one week before surgery. In addition, they were trained on an additional test, the paw reaching test (see below) for 10 days before surgery. As before, they received cefazolin sodium (40 mg/kg, i.p.) before surgery. On the day of surgery, electrocoagulation of the proximal middle cerebral artery was done, as described previously (Kawamata et al. (1996) J. Cereb. Blood Flow Metab. 16, 542-547; Kawamata et al. (1997) Proc. Nat. Acad Sci. 94, 8179-8184; Kawamata et al. (1999) Exp. Neurol. 158, 89-96). They received another injection of cefazolin sodium, 40 mg/kg, i.p. after surgery.
At one day after stroke, animals received either: (1) vehicle injection into periinfarct tissue, and vehicle injection into the cisterna magna, (2) NSC (10^6 cells) into periinfarct tissue and vehicle into the cisterna magna, (3) vehicle into periinfarct tissue and bFGF (0.5 μg) into the cisterna magna or (4) the combination NSC (10^6 cells) into periinfarct tissue and bFGF (0.5 μg) into the cisterna magna.
These injections were done with a volume of 25 μl each under 2% halothane anesthesia. […]

rat stroke model = conditions: BDNF administered conjointly with bone marrow cells; cited from earlier work

Row | Molecule | recovery on limb placing tests (forelimb and hindlimb) ([1]; intracisternal on days 1 and 3 after stroke, NSC 10^6 cells, bFGF 0.5 μg, compared to placebo, FIGS. 1A-1B) | body swing test ([1]; intracisternal on days 1 and 3 after stroke, compared to placebo, FIG. 1C) | sensorimotor recovery of the contralateral limbs (summary) ([1]; intracisternal starting one day after stroke) | recovery on tests of sensorimotor function of the impaired limbs (animal models of stroke) | behavioral outcome overall (summary of tests) [2] | recovery on forelimb and hindlimb placing tests ([2]; NSC 10^6 cells periinfarct, bFGF 0.5 μg cisterna magna, compared to placebo, FIGS. 2A-2B) | recovery in a rat stroke model (rat stroke model)
1 | bFGF: basic fibroblast growth factor, a protein that supports survival and axonal outgrowth from neurons | significantly enhanced recovery compared to placebo | No differences | significantly enhance sensorimotor recovery | recover more quickly and to a greater extent | improved behavioral outcome on some tests | superiority in recovery | –
2 | B1 | – | – | – | – | – | – | improve recovery

Reference: patent publication US6749850B1, “Methods, compositions and kits for promoting recovery from damage to the central nervous system” (The General Hospital Corporation, priority 1999, dated 2004)
